Data reported in ChEMBL document CHEMBL1201862, “PubChem BioAssay data set” (2004).
Calls of active or inactive are those of the source.

Key:
[1] = biological target: T1, Sentrin-specific protease 1 (Homo sapiens, UniProt Q9P0U3); test: potency of human SENP1 inhibitors, dose response, biochemical, kinetic FRET (AID 651697); type: functional; settings: read-out: IC50_Mean
T1 sequence (Q9P0U3 whole entry): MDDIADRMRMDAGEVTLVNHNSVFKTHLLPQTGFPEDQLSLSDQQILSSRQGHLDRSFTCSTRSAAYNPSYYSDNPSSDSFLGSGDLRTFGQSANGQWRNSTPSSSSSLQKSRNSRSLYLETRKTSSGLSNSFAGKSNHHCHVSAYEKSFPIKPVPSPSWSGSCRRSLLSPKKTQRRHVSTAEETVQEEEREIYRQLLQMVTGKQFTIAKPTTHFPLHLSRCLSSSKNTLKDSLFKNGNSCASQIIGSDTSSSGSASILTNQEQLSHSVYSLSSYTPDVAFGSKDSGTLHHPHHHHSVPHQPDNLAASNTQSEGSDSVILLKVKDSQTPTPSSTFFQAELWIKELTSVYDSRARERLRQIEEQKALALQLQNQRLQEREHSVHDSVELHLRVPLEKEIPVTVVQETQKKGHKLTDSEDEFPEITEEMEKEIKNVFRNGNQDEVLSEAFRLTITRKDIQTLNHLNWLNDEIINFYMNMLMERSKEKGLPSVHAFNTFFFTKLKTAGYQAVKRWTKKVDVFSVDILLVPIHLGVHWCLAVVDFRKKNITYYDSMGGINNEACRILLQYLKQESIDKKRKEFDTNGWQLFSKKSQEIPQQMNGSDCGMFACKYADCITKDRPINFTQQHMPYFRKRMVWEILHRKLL

[2] = biological target: T1, Sentrin-specific protease 1; test: Dose response confirmation of small molecule inhibitors of the catalytic domain of the SUMO protease, SENP1 in a FRET assay.; type: functional; settings: read-out: IC50_Mean
[3] = biological target: T2, High affinity choline transporter 1 (Homo sapiens, UniProt Q9GZV3); test: CHT inhibitors, dose response, cell-based, 5-point CRC, membrane potential dye (AID 504840); type: functional
T2 sequence (Q9GZV3 whole entry): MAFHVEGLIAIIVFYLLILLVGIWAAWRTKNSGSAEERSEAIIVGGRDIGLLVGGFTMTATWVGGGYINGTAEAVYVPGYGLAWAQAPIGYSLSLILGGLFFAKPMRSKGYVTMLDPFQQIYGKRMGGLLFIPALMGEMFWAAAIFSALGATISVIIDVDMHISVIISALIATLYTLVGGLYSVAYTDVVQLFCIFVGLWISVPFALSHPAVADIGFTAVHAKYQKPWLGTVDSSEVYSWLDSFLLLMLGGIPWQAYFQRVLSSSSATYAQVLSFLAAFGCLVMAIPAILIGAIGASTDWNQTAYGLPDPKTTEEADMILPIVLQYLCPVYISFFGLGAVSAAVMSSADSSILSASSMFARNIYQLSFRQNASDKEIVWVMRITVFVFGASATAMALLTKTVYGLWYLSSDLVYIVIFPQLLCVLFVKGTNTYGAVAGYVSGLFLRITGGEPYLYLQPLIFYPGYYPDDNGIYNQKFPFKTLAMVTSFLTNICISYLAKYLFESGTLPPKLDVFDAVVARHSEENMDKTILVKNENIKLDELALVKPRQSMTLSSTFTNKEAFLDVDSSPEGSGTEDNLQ

[4] = biological target: T2, High affinity choline transporter 1; test: CHT inhibitors, dose response, cell-based, 10-point CRC, membrane potential dye (AID 588401); type: functional;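 also: membrane potential dye fluorescence of choline-evoked depolarization via CHT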
Beta-galactosidase = Beta-galactosidase (Escherichia coli, UniProt Q8VNN2); test: Dose response counterscreen for EBI2 assay utilizing the enzyme, b-galactosidase.; type: functional
[5] = biological target: T3, Heat shock factor protein 1 (Mus musculus, UniProt P38532); test: inhibition of MG132-induced HSE-luciferase signal, confirmation, cell-based, NIH3T3, luminescence, dose retest (AID 2382); type: functional;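 also: NIH3T3 fibroblasts with HSF1-driven luciferase reporter stressed by proteasome inhibitor MG132; luminescence from HSF1-driven luciferase expression after 8 hours of MG132 stress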
T3 sequence (P38532 whole entry): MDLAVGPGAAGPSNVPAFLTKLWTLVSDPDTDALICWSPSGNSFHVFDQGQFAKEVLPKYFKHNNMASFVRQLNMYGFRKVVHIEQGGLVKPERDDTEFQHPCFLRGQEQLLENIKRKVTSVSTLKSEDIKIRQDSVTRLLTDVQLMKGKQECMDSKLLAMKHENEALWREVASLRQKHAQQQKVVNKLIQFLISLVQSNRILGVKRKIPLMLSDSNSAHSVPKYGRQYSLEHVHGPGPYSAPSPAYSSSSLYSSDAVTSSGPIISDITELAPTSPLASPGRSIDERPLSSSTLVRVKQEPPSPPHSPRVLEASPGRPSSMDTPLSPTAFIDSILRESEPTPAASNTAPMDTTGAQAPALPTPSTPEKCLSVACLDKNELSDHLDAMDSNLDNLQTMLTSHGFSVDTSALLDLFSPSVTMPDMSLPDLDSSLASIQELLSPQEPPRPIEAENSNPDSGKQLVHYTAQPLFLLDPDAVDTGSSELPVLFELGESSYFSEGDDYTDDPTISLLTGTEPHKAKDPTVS

Nonstructural protein 1 = Nonstructural protein 1 (Influenza A virus, UniProt Q194T2); type: functional, Influenza A virus (A/California/07/2009(H1N1))
[6] = AlphaScreen signal interference compounds, dose response, artefact control for ARNT-TACC3 interaction inhibitor project, biochemical, luminescence, cherry-pick (AID 651705); type: functional;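 also: AlphaScreen bead proximity signal that flags compounds interfering with the detection technology; potency reflects signal decrease which marks the compound as an assay artifact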
[7] = biological target: Long-chain-fatty-acid--AMP ligase FadD28 (Mycobacterium tuberculosis, UniProt P9WQ59); test: Fluorescence polarization aasay to screen for inhibitors that compete for the binding of FadD28 to a bisubstrate Measured in Biochemical System Using Plate Reader - 2147-01_Inhibitor_Dose_CherryPick_Activity.; type: functional, Mycobacterium tuberculosis H37Rv
Protein Wnt-3a = Protein Wnt-3a (Mus musculus, UniProt P27467); test: Wnt3a-driven reporter signaling inhibition, dose response, selectivity assay for Gli-SUFU antagonist project, Wnt-LIGHT cells, luminescence (AID 651570); type: functional; settings: read-out: IC50_Mean;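 also: Wnt-LIGHT reporter cells stimulated with conditioned medium from Wnt3a-producing cells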
[8] = Luminescence Cell-Based Dose Confirmation HTS to Identify Activators of 5'UTR Stem-Loop Driven Alpha-Synuclein mRNA Translation in H4 Neuroglioblastoma Cells. [Related pubchem assays: 1829 (Project Summary), 1814 (Primary HTS)]; type: functional
[9] = Luminescence Cell-Based Dose Response HTS to Identify Activators of Luciferase Translation or Activity in H4 […] Cells. [Related pubchem assays: 1829 (Project Summary), 1814 (Primary HTS)]; type: functional
H4 = test: Luminescence Cell-Based Dose Response HTS to Identify Activators of 5'UTR Stem-Loop Driven Prion Protein mRNA Translation in H4 Neuroglioblastoma Cells. [Related pubchem assays: 1829 (Project Summary), 1814 (Primary HTS)]; type: functional; settings: Homo sapiens
[10] = biological target: T4, Probable nicotinate-nucleotide adenylyltransferase (Staphylococcus aureus (strain N315), UniProt P65502); type: functional, Staphylococcus aureus subsp. aureus N315;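 as to IC50 Mean: confirmatory dose-response retesting of NadD inhibitor hits first found in an ultra-high-throughput screen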
[11] = biological target: T4, Probable nicotinate-nucleotide adenylyltransferase; type: functional, Staphylococcus aureus subsp. aureus N315; settings: read-out: IC50_Mean
[12] = biological target: 26S proteasome non-ATPase regulatory subunit 14 (Homo sapiens, UniProt O00487); test: inhibition of proteasome subunit RPN11 – biochemical, fluorescence polarization, uHTS hits, confirmation (AID 602368); type: functional
[13] = biological target: 72 kDa type IV collagenase (Homo sapiens, UniProt P08253); test: Dose Response validation of uHTS RPN11 inhibitor hits using a MMP-2 Fluorescence assay.; type: functional
Prothrombin = Prothrombin (Bos taurus, UniProt P00735); test: thrombin inhibition, dose response, biochemical, fluorescence polarization, uHTS hits (AID 602369); type: functional
Melanocortin receptor 4 = Melanocortin receptor 4 (Homo sapiens, UniProt P32245); type: functional, cell-based;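 also: Cell-based assay with luminescence read-out, confirmatory dose-response testing for agonist activity of biased ligands at MC4R; human U2OS cells with tagged receptor and beta-arrestin; potency of agonists that increase receptor coupling to beta-arrestin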
Chain of Melanocortin receptor 4 (P32245 whole entry): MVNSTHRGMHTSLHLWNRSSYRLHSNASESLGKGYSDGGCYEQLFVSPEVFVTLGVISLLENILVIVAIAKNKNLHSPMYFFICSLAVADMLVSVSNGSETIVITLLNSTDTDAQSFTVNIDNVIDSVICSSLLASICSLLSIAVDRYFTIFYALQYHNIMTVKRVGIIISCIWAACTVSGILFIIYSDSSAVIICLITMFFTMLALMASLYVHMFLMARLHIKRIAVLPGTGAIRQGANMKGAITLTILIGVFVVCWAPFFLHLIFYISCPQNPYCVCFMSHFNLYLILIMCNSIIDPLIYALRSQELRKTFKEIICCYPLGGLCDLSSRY

T4 sequence (P65502 whole entry): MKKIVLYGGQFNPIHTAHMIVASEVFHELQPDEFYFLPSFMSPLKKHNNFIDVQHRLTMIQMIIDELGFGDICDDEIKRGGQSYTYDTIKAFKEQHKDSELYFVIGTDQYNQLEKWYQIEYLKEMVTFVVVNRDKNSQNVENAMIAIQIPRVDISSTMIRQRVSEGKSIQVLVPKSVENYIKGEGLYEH
Chain of 72 kDa type IV collagenase (P08253 whole entry): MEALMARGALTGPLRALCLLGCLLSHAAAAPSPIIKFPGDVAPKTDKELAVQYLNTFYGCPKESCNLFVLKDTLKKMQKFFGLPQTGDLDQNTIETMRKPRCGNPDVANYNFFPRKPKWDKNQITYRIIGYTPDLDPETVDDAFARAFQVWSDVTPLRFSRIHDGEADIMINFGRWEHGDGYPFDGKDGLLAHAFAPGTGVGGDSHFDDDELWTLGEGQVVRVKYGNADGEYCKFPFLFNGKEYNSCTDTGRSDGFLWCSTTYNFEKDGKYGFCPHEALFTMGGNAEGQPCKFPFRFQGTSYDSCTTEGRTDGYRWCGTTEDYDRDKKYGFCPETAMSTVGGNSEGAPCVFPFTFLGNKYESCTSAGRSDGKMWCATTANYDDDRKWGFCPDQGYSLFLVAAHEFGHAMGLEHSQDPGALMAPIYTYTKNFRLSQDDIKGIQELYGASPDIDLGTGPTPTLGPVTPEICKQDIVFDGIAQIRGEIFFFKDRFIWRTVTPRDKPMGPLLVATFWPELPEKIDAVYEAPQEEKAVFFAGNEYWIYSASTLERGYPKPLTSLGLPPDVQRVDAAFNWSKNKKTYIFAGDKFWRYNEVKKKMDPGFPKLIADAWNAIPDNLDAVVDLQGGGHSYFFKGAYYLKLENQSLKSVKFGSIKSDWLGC
Chain of Long-chain-fatty-acid--AMP ligase FadD28 (P9WQ59 whole entry): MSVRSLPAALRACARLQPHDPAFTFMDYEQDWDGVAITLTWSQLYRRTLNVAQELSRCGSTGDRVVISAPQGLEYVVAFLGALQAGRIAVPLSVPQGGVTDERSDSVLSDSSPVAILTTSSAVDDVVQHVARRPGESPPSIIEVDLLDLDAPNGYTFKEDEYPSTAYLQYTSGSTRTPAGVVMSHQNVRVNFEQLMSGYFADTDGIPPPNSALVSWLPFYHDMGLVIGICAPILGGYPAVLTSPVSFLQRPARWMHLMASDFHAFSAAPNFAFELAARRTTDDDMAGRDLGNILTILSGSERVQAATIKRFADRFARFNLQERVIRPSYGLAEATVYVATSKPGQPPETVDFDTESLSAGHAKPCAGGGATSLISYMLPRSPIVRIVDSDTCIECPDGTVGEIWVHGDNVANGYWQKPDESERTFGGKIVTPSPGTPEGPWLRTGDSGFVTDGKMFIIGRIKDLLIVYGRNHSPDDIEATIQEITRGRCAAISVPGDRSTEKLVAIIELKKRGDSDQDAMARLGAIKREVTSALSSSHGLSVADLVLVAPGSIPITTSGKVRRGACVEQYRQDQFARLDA
Chain of Beta-galactosidase (Q8VNN2 whole entry): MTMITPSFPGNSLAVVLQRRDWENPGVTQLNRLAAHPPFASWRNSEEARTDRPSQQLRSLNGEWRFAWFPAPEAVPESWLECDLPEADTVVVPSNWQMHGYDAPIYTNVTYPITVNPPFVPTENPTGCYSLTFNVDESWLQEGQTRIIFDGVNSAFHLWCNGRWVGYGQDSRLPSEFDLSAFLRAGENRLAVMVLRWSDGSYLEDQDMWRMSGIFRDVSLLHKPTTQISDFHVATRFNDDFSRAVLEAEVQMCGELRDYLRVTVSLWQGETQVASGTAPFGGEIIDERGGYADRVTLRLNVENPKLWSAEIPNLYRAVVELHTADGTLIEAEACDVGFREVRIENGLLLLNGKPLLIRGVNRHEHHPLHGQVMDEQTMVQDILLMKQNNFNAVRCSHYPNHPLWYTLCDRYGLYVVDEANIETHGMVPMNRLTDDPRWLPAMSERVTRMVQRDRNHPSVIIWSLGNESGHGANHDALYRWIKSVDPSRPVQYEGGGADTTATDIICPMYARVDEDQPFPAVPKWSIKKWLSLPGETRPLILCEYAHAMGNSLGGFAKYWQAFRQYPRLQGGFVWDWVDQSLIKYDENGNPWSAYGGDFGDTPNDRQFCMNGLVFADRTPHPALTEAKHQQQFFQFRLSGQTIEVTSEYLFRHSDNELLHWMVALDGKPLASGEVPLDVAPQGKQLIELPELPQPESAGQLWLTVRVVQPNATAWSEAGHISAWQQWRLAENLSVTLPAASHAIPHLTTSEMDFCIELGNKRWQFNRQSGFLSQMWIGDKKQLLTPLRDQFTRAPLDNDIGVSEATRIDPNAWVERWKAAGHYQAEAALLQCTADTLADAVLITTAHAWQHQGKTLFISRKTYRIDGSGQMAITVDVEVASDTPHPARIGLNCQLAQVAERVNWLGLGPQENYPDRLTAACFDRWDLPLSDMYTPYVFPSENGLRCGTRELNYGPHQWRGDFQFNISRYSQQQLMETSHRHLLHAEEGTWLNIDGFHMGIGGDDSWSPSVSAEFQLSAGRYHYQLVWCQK
Chain of Protein Wnt-3a (P27467 whole entry): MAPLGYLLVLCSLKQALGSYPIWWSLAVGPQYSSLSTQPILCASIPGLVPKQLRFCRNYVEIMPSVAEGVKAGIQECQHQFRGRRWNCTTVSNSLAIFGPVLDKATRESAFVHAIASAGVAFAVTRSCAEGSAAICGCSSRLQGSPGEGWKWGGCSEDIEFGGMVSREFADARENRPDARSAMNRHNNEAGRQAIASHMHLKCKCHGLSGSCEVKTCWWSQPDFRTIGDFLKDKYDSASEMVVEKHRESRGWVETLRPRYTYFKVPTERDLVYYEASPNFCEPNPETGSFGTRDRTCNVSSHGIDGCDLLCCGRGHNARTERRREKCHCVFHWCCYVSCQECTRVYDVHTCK
Chain of 26S proteasome non-ATPase regulatory subunit 14 (O00487 whole entry): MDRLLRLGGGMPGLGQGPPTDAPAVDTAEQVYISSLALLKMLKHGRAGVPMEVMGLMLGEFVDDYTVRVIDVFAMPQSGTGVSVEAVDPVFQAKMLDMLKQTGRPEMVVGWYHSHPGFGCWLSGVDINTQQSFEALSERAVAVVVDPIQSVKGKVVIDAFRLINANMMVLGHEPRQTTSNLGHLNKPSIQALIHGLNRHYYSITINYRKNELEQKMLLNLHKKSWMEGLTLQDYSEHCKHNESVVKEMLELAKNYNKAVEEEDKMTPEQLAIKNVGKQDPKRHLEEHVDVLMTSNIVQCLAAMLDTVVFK
Chain of Nonstructural protein 1 (Q194T2 whole entry): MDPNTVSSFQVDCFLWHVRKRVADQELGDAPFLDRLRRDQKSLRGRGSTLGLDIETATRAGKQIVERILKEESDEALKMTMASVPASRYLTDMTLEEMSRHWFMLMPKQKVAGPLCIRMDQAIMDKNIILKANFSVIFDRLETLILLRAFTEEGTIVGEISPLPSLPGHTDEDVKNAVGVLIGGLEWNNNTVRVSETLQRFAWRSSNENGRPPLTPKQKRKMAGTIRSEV

For `Nc1nc(N)c2sc3nc(C(F)(F)F)cc(C(F)(F)F)c3c2n1`, the IC50 [1] was 30 µM (inactive) and the IC50 [2] was 16.7 µM (active).

With `CCCn1c2ccccc2c2cnn(CC(=O)NCCCN3CCN(c4ccccc4)CC3)c(=O)c21` the IC50 [3] was 2.49 µM (active) and the IC50 [4] was 2.84 µM (active).

In the case of `COc1ccc(OCC(=O)Nc2ccc(N3CCOCC3)cc2)cc1`, the IC50 (Beta-galactosidase) is reported as > 80 µM (inactive).

In the case of `O=C(NCCCn1ccnc1)C(=O)NCC1OCCN1S(=O)(=O)c1cc(F)ccc1F` (stereo unspecified), the EC50 [5] is reported as 128 µM (active), the IC50 (Nonstructural protein 1) is reported as 12.7 µM (active) and the AC50 [6] is reported as 84.5 µM (active).

With `COc1ccc(/C=C2\SC(=O)N(CC(=O)Nc3cccc(C)c3)C2=O)cc1O` the AC50 [7] was 1.47 µM (active).

For `Cn1c(=O)c2c(nc(NCc3ccco3)n2Cc2ccc(Cl)cc2Cl)n(C)c1=O`, the IC50 (Protein Wnt-3a) was 1.94 µM (active).

For `Cc1ccc(Nc2nc(Nc3ccc(C)cc3)nc(SC3=NCCS3)n2)cc1`, the EC50 [8] was > 120 µM (not active), the EC50 [9] was > 120 µM (not active) and the EC50 (H4) was 17.6 µM (active). For the same compound, the IC50 [10] was 28.6 µM (active) and the IC50 [11] was 53.6 µM (active).

With `C[C@]12CCC[C@H](O1)c1c(cc3c(c1O)C(=O)c1c(O)cc(O)cc1C3=O)O2` the IC50 [12] was 2.94 µM (active), the IC50 [13] was 78.4 µM (active) and the IC50 (Prothrombin) was 4.81 µM (active).

For `O=C1OC(c2ccccc2)(c2cc(Br)ccc2O)c2ccccc21` (stereo unspecified), the EC50 (Melanocortin receptor 4) was > 89.2 µM (inactive).

In the case of `CCc1cccc(CC)c1NC(=O)c1cccc(S(=O)(=O)N2CCN(C)CC2)c1`, the IC50 [3] is reported as 7.52 µM (active) and the IC50 [4] is reported as 8.43 µM (active).
